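Interpolation was linear, between the two tested concentrations surrounding the appropriate level; five concentrations were tested over 48 hours in 96-well plates. TGI marks complete inhibition of growth.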 Bounds are passed on as bounds.

For the first experiment, the system named is 786-0 renal. The experiment is described as follows: inhibition of tumour cell growth, NCI panel, 48 h.
For `COc1cc(C2SCC(=O)N2c2ccc(Cl)c(Cl)c2)cc(OC)c1OC` (stereo not given), the TGI is above 100 µM.

`C[C@@]12CCC3C1C=C1C(=O)c4cc(O)ccc4C(=O)[C@]1(O2)[C@@]3(C)C=O`: the TGI is 14.5 µM.

For `C[C@H]1C2Cc3cc(N)ccc3[C@@]1(C)CCN2CCc1ccccc1`, the TGI is above 100 µM.

For `NCCCNCCCCNCCCN`, the TGI is 2.79 µM.

For `CC1(C)OC2C(O)CN3CCS[C@H]3C2O1` (stereo not given in full), the TGI was above 100 µM.

`O=c1c2c(-c3ccccc3)onc2n(-c2ccccc2)c(=O)n1-c1ccccc1`: the TGI was above 100 µM.

`CCCCCC(/C=C/C1CCC(=O)C1CC#C[Si](C)(C)C)OCc1ccccc1` (stereo not given) gave a TGI of 28.3 µM.

`CC1(C)OC(=C(C#N)C#N)C(C#N)=C1/C=C/c1ccncc1` displayed a TGI of 3.66 µM.

A further experiment concerns A498 renal. As to the kind of experiment: inhibition of tumour cell growth, NCI panel, 48 h.
In turn, `COc1cc(C2SCC(=O)N2c2ccc(Cl)c(Cl)c2)cc(OC)c1OC` (stereo not given) showed a TGI above 100 µM.

Regarding `C[C@@]12CCC3C1C=C1C(=O)c4cc(O)ccc4C(=O)[C@]1(O2)[C@@]3(C)C=O`, the TGI worked out at 9.59 µM.

Turning to `C[C@H]1C2Cc3cc(N)ccc3[C@@]1(C)CCN2CCc1ccccc1`, the TGI is above 100 µM.

`NCCCNCCCCNCCCN` returned a TGI above 100 µM.

As for `CC1(C)OC2C(O)CN3CCS[C@H]3C2O1` (stereo not given in full), the TGI is above 100 µM.

With `O=c1c2c(-c3ccccc3)onc2n(-c2ccccc2)c(=O)n1-c1ccccc1`, the TGI is above 100 µM.

For `CCCCCC(/C=C/C1CCC(=O)C1CC#C[Si](C)(C)C)OCc1ccccc1` (stereo not given), the TGI was above 85.8 µM.

`CC1(C)OC(=C(C#N)C#N)C(C#N)=C1/C=C/c1ccncc1` displayed a TGI of 19.4 µM.

In a further experiment the test system is CAKI-1 renal. As to the kind of experiment: inhibition of tumour cell growth, NCI panel, 48 h.
Regarding `COc1cc(C2SCC(=O)N2c2ccc(Cl)c(Cl)c2)cc(OC)c1OC` (stereo not given), the TGI was above 100 µM.

For the compound `C[C@@]12CCC3C1C=C1C(=O)c4cc(O)ccc4C(=O)[C@]1(O2)[C@@]3(C)C=O`, the TGI amounted to 13.7 µM.

`C[C@H]1C2Cc3cc(N)ccc3[C@@]1(C)CCN2CCc1ccccc1` displayed a TGI above 100 µM.

The compound `NCCCNCCCCNCCCN` returned a TGI of 11.6 µM.

Turning to `CC1(C)OC2C(O)CN3CCS[C@H]3C2O1` (stereo not given in full), the TGI is above 100 µM.

Consider `O=c1c2c(-c3ccccc3)onc2n(-c2ccccc2)c(=O)n1-c1ccccc1`, for which the TGI is above 100 µM.

`CCCCCC(/C=C/C1CCC(=O)C1CC#C[Si](C)(C)C)OCc1ccccc1` (stereo not given) showed a TGI of 36.8 µM.

The compound `CC1(C)OC(=C(C#N)C#N)C(C#N)=C1/C=C/c1ccncc1` gave a TGI of 3.64 µM.

In the next experiment the test system is CCRF-CEM leukemia. As to the kind of experiment: inhibition of tumour cell growth, NCI panel, 48 h.
Compound `COc1cc(C2SCC(=O)N2c2ccc(Cl)c(Cl)c2)cc(OC)c1OC` (stereo not given) yielded a TGI of 51.3 µM.

As for `C[C@@]12CCC3C1C=C1C(=O)c4cc(O)ccc4C(=O)[C@]1(O2)[C@@]3(C)C=O`, the TGI is 4.02 µM.

Take `C[C@H]1C2Cc3cc(N)ccc3[C@@]1(C)CCN2CCc1ccccc1`: the TGI was above 100 µM.

The compound `NCCCNCCCCNCCCN` gave a TGI of 5.72 µM.

The compound `CC1(C)OC2C(O)CN3CCS[C@H]3C2O1` (stereo not given in full) had a TGI above 100 µM.

In the case of `O=c1c2c(-c3ccccc3)onc2n(-c2ccccc2)c(=O)n1-c1ccccc1`, the TGI was above 100 µM.

Regarding `CCCCCC(/C=C/C1CCC(=O)C1CC#C[Si](C)(C)C)OCc1ccccc1` (stereo not given), the TGI amounted to 17.2 µM.

Turning to `CC1(C)OC(=C(C#N)C#N)C(C#N)=C1/C=C/c1ccncc1`, the TGI is 2.4 µM.

Another experiment concerns COLO 205 colon. As to the kind of experiment: inhibition of tumour cell growth, NCI panel, 48 h.
`COc1cc(C2SCC(=O)N2c2ccc(Cl)c(Cl)c2)cc(OC)c1OC` (stereo not given) displayed a TGI above 100 µM.

For the compound `C[C@@]12CCC3C1C=C1C(=O)c4cc(O)ccc4C(=O)[C@]1(O2)[C@@]3(C)C=O`, the TGI worked out at 19.5 µM.

`C[C@H]1C2Cc3cc(N)ccc3[C@@]1(C)CCN2CCc1ccccc1` came in with a TGI of 32.9 µM.

`NCCCNCCCCNCCCN` gave a TGI of 11.8 µM.

Consider `CC1(C)OC2C(O)CN3CCS[C@H]3C2O1` (stereo not given in full), for which the TGI was above 100 µM.

For `O=c1c2c(-c3ccccc3)onc2n(-c2ccccc2)c(=O)n1-c1ccccc1`, the TGI is above 100 µM.

`CCCCCC(/C=C/C1CCC(=O)C1CC#C[Si](C)(C)C)OCc1ccccc1` (stereo not given): the TGI worked out at 39.3 µM.

Compound `CC1(C)OC(=C(C#N)C#N)C(C#N)=C1/C=C/c1ccncc1` came in with a TGI of 3.27 µM.

Another experiment deals with EKVX NSCLC. As to the kind of experiment: inhibition of tumour cell growth, NCI panel, 48 h.
In turn, `COc1cc(C2SCC(=O)N2c2ccc(Cl)c(Cl)c2)cc(OC)c1OC` (stereo not given) yielded a TGI above 87.9 µM.

Consider `C[C@@]12CCC3C1C=C1C(=O)c4cc(O)ccc4C(=O)[C@]1(O2)[C@@]3(C)C=O`, for which the TGI came to 22.5 µM.

`C[C@H]1C2Cc3cc(N)ccc3[C@@]1(C)CCN2CCc1ccccc1`: the TGI was above 100 µM.

For the compound `NCCCNCCCCNCCCN`, the TGI worked out at 38.6 µM.

For `CC1(C)OC2C(O)CN3CCS[C@H]3C2O1` (stereo not given in full), the TGI was above 100 µM.

With `O=c1c2c(-c3ccccc3)onc2n(-c2ccccc2)c(=O)n1-c1ccccc1`, the TGI amounted to 59.5 µM.

With `CCCCCC(/C=C/C1CCC(=O)C1CC#C[Si](C)(C)C)OCc1ccccc1` (stereo not given), the TGI worked out at 39.8 µM.

The compound `CC1(C)OC(=C(C#N)C#N)C(C#N)=C1/C=C/c1ccncc1` came in with a TGI of 5.46 µM.

The next experiment concerns HCC-2998 colon. As to the kind of experiment: inhibition of tumour cell growth, NCI panel, 48 h.
For `COc1cc(C2SCC(=O)N2c2ccc(Cl)c(Cl)c2)cc(OC)c1OC` (stereo not given), the TGI is above 100 µM.

Compound `C[C@@]12CCC3C1C=C1C(=O)c4cc(O)ccc4C(=O)[C@]1(O2)[C@@]3(C)C=O` registered a TGI of 9.74 µM.

Regarding `C[C@H]1C2Cc3cc(N)ccc3[C@@]1(C)CCN2CCc1ccccc1`, the TGI was determined as 21.7 µM.

On to `NCCCNCCCCNCCCN`, for which the TGI was above 76.7 µM.

`CC1(C)OC2C(O)CN3CCS[C@H]3C2O1` (stereo not given in full) displayed a TGI above 100 µM.

`O=c1c2c(-c3ccccc3)onc2n(-c2ccccc2)c(=O)n1-c1ccccc1` displayed a TGI of 33.1 µM.

Turning to `CCCCCC(/C=C/C1CCC(=O)C1CC#C[Si](C)(C)C)OCc1ccccc1` (stereo not given), the TGI was 48.1 µM.

In the case of `CC1(C)OC(=C(C#N)C#N)C(C#N)=C1/C=C/c1ccncc1`, the TGI is 19.5 µM.

The next experiment concerns K-562 leukemia. The experiment is described as follows: inhibition of tumour cell growth, NCI panel, 48 h.
Compound `COc1cc(C2SCC(=O)N2c2ccc(Cl)c(Cl)c2)cc(OC)c1OC` (stereo not given) displayed a TGI above 100 µM.

In the case of `C[C@@]12CCC3C1C=C1C(=O)c4cc(O)ccc4C(=O)[C@]1(O2)[C@@]3(C)C=O`, the TGI worked out at 12.5 µM.

`C[C@H]1C2Cc3cc(N)ccc3[C@@]1(C)CCN2CCc1ccccc1` yielded a TGI above 100 µM.

`NCCCNCCCCNCCCN`: the TGI is above 21.2 µM.

Compound `CC1(C)OC2C(O)CN3CCS[C@H]3C2O1` (stereo not given in full) returned a TGI above 100 µM.

Compound `O=c1c2c(-c3ccccc3)onc2n(-c2ccccc2)c(=O)n1-c1ccccc1` gave a TGI above 100 µM.

In the case of `CCCCCC(/C=C/C1CCC(=O)C1CC#C[Si](C)(C)C)OCc1ccccc1` (stereo not given), the TGI worked out at 41.8 µM.

`CC1(C)OC(=C(C#N)C#N)C(C#N)=C1/C=C/c1ccncc1`: the TGI turned out to be 7.04 µM.

In a further experiment the test system is MDA-MB-435. As to the kind of experiment: inhibition of tumour cell growth, NCI panel, 48 h.
Turning to `COc1cc(C2SCC(=O)N2c2ccc(Cl)c(Cl)c2)cc(OC)c1OC` (stereo not given), the TGI came to 34 µM.

Turning to `C[C@@]12CCC3C1C=C1C(=O)c4cc(O)ccc4C(=O)[C@]1(O2)[C@@]3(C)C=O`, the TGI was determined as 11.3 µM.

`C[C@H]1C2Cc3cc(N)ccc3[C@@]1(C)CCN2CCc1ccccc1` came in with a TGI above 100 µM.

`NCCCNCCCCNCCCN` yielded a TGI above 68.2 µM.

Compound `CC1(C)OC2C(O)CN3CCS[C@H]3C2O1` (stereo not given in full) yielded a TGI above 100 µM.

As for `O=c1c2c(-c3ccccc3)onc2n(-c2ccccc2)c(=O)n1-c1ccccc1`, the TGI was above 100 µM.

`CCCCCC(/C=C/C1CCC(=O)C1CC#C[Si](C)(C)C)OCc1ccccc1` (stereo not given) had a TGI of 41.7 µM.

As to `CC1(C)OC(=C(C#N)C#N)C(C#N)=C1/C=C/c1ccncc1`, the TGI came out at 10.6 µM.

For a further experiment, the system named is NCI-H460 lung. The experiment is described as follows: inhibition of tumour cell growth, NCI panel, 48 h.
For `COc1cc(C2SCC(=O)N2c2ccc(Cl)c(Cl)c2)cc(OC)c1OC` (stereo not given), the TGI is above 100 µM.

Compound `C[C@@]12CCC3C1C=C1C(=O)c4cc(O)ccc4C(=O)[C@]1(O2)[C@@]3(C)C=O` displayed a TGI of 10.6 µM.

In turn, `C[C@H]1C2Cc3cc(N)ccc3[C@@]1(C)CCN2CCc1ccccc1` displayed a TGI above 100 µM.

The compound `NCCCNCCCCNCCCN` showed a TGI above 100 µM.

The compound `CC1(C)OC2C(O)CN3CCS[C@H]3C2O1` (stereo not given in full) came in with a TGI above 100 µM.

In the case of `O=c1c2c(-c3ccccc3)onc2n(-c2ccccc2)c(=O)n1-c1ccccc1`, the TGI worked out at 36.8 µM.

The compound `CCCCCC(/C=C/C1CCC(=O)C1CC#C[Si](C)(C)C)OCc1ccccc1` (stereo not given) came in with a TGI of 30.7 µM.

The compound `CC1(C)OC(=C(C#N)C#N)C(C#N)=C1/C=C/c1ccncc1` displayed a TGI of 22.4 µM.

For the origin of these results see PubChem BioAssay (NCI).
